# Experimental data: patent US20130196050A1, “SALTY TASTE ENHANCER” (AJINOMOTO CO., INC., priority 2010, published 2013)
# Assays:
# [1] = biological target: T1, Human ENaC δ, β and γ subunit (Homo sapiens, UniProt P51168+P51170+P51172); assay: Measurement of ENaC activation potency (two electrode voltage clamp current in ENaC-expressing oocyte); assay type: cell-based; details: lowest concentration increasing the current value by not less than 10% vs before addition
# T1 construct: expressed in transfected cells; host or cells: Xenopus laevis (African clawed frog) oocytes injected with cRNA
# T1 sequence (P51172 1-638 isoform P51172-1): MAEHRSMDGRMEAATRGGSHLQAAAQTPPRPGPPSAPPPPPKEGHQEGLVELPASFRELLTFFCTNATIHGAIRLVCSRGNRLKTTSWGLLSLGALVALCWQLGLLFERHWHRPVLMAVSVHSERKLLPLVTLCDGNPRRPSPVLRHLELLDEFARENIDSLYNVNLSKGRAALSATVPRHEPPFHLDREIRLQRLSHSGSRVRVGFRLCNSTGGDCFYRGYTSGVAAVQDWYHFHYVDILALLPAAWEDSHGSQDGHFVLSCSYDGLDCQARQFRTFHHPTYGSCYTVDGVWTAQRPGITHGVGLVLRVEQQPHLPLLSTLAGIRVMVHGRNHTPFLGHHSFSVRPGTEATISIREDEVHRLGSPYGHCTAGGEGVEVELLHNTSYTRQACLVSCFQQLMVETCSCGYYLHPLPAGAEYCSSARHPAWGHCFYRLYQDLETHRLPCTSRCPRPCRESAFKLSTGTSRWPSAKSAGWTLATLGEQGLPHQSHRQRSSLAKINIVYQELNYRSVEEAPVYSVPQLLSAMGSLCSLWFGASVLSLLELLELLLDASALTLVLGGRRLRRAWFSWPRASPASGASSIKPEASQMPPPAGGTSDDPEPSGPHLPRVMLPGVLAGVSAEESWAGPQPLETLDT
# T1 sequence (P51168 1-640): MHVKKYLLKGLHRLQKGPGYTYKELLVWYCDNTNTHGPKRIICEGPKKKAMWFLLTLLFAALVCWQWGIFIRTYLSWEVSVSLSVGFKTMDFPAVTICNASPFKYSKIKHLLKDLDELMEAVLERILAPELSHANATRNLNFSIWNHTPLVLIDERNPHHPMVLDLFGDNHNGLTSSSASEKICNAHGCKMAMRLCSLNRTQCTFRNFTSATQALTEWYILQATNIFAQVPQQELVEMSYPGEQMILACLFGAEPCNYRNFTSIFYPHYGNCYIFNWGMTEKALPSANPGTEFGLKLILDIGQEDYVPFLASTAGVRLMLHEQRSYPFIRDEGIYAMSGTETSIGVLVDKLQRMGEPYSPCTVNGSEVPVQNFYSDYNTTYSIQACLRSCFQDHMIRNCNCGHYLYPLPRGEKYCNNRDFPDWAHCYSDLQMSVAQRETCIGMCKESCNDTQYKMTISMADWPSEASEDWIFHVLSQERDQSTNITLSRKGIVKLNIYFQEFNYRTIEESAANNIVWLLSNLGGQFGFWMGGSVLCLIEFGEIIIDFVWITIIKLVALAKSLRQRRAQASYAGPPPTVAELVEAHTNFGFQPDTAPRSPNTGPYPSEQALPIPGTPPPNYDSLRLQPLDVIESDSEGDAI
# T1 sequence (P51170 1-649): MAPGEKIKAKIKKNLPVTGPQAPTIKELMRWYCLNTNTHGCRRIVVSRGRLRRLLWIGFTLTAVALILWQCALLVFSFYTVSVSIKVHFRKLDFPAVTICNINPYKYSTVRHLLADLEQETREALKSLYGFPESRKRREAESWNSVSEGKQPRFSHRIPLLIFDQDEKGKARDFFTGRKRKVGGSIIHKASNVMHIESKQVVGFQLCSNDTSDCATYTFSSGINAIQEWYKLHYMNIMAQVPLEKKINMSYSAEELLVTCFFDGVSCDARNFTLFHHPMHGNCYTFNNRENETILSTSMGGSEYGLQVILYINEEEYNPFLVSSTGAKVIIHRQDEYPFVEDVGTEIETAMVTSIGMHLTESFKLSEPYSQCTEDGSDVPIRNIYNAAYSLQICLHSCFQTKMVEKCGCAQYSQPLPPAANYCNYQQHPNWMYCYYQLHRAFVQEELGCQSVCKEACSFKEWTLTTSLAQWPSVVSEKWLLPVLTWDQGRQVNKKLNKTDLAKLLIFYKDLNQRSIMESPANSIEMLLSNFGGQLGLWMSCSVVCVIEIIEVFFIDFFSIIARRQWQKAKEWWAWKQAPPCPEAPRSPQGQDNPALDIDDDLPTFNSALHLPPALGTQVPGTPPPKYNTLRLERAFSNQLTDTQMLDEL
# Method: ENaC activation current value, namely, the inward current in ENaC-expressing oocyte was measured as follows.
# According to the method described in Motonao Nakamura, Takao Shimizu: Experiment of African clawed frog oocyte, Experimental Medicine Vol. 11, No. 3, 224-232 (1993), oocyte was collected from African clawed frog, […], and the current value was measured by a Two Electrode Voltage Clamp technique. In the present invention, ND96 (96 mM NaCl, 2 mM KCl, 1 mM MgCl2, 5 mM Hepes, 1.8 mM CaCl2, pH 7.6) was used instead of MBS buffer in the above-mentioned document. Injector NANOLITER 2000 manufactured by World Precision Instruments was used for microinjection, OpusXpress 6000A manufactured by Molecular Devices was used for current value measurement by a Two Electrode Voltage Clamp technique, and Clampfit 10.2 software manufactured by Molecular Devices was used for data analysis.
# Human ENaC δ, β and γ subunit genes shown by SEQ ID NOs: 1, 2 and 3, respectively, in the Sequence Listing were each cloned into a plasmid vector, and used as a template DNA for cRNA synthesis. cRNA was synthesized using MEGAscript kit manufactured by Ambion and according to the method of the manual of the manufacturer.
# A mixture of the same amount of ENaC δ subunit cRNA (0.4 to 0.8 μg/μL), and β and γ subunits cRNA (0.4 μg/μL) was injected into the oocyte of African clawed frog at 27.6 nL per oocyte, and the oocyte was cultured for 16 hours to 72 hours. Thereafter, the oocyte was set on a measuring apparatus OpusXpress 6000A, the electrodes were inserted into the oocyte, the voltage was clamped at a level lower by −30 mV than the resting membrane potential by a Two Electrode Voltage Clamp technique, and the current value was measured.
# To measure the ENaC activation potency, oocyte was stimulated with each test compound, and the minimum effective dose (hereinafter to be abbreviated as MED) of the compound at the time point when the electric current started to increase was measured. In this case, the minimum effective dose of the stimulation compound that increased the current value by not less than 10%, as compared to the current value before addition of the compound and without stimulation, was taken as MED. A smaller MED means higher ENaC activation potency.
# Each test compound was directly dissolved in ND96, or first dissolved in dimethyl sulfoxide (DMSO) to 100 mM, and then prepared by diluting the solution with ND96 to a concentration used for the evaluation. The concentration of the test compound in ND96 was prepared to various concentrations within the range of 0.1 nM to 300 μm.
# ND96 as a perfusion fluid was flowed at a rate of 0.5 mL/min through the measuring apparatus OpusXpress 6000A on which ENaC-expressing oocyte was set, the perfusion fluid was temporarily stopped every 3 minutes to add a test compound solution (0.25 mL) dissolved in ND96 at a rate of 0.5 mL/minute. In this way, the test compound was contacted with ENaC-expressing oocyte, and whether ENaC is activated by the compound was examined by measuring the current value. After addition of the test compound, feeding of the perfusion fluid was resumed to wash away the compound to be ready for the next addition of the compound.
# The compound was added successively from a low concentration to a high concentration to stimulate ENaC-expressing oocyte. The concentrations actually added was, for example, 1 nM, 3 nM, 10 nM, 30 nM, 100 nM, 300 nM; 1 μM, 3 μM, 10 μm, 30 μm, 100 μm, 300 μm; 1.2 μM, 6 μM, 30 μm, 150 μm of one test compound. The compound was added from low concentrations to high concentrations at 3 minute intervals. The first compound was added from a low concentration to a high concentration, then the second and the third compounds were similarly added successively to the same oocyte, and changes in the current value were measured. The current value was continuously measured from the start to the end of the experiment. […]
# [2] = biological target: T2, ENaC β subunit (Homo sapiens, UniProt P51168); details: literature statement; cited from earlier work
# T2 sequence (P51168 1-640): T1 sequence (P51168 1-640)
# T2 sequence (P51170 1-649 partner): T1 sequence (P51170 1-649)
# T2 sequence (P37088 1-669 partner): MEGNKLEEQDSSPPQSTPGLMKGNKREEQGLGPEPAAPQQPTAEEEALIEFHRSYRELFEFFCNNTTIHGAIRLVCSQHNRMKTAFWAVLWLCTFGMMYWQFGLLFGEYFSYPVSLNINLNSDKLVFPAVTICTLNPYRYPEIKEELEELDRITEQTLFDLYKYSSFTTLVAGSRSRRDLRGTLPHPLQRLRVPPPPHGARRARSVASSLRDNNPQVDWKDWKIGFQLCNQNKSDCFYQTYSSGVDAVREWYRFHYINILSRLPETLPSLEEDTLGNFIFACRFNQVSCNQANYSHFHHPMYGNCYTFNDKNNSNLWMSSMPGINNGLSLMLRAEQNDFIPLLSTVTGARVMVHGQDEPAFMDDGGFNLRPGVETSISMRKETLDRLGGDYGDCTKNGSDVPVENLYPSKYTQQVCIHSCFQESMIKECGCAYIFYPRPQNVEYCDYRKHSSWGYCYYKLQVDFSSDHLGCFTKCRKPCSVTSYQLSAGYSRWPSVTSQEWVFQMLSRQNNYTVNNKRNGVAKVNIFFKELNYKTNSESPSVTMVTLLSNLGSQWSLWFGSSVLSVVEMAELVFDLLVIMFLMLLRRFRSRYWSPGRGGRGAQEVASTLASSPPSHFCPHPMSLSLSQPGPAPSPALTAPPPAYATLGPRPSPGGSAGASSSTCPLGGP
MED value (minimum effective dose) [1],Compound,action on ENaC [2]
3 µM,Cc1cc(O)c(C(=O)NCCc2c[nH]c3ccccc23)c(O)c1 [Example 124],
1 µM,O=C(NCCc1c[nH]c2ccccc12)c1c(O)cc(O)cc1O [Example 125],
,"Cc1cccc2[nH]cc(SC(CC(C)C)C(=O)NCCO)c12 (stereo not drawn) [Example S3969, N-(2-hydroxyethyl)-4-methyl-2-(4-methyl-1H-indol-3-ylthio)pentanamide]",stimulant (activator) of ENaC that acts on β subunit
